Several values for one entry are separate records, joined by “and”; a condition that tells them apart may be missing. Equal entries are not always repeated. Where two headings read alike, the source gives them in different places.
Columns and labels:
recombinant SCoV-2 PLpro = recombinant SCoV-2 PLpro (Severe acute respiratory syndrome coronavirus 2, UniProt P0DTD1); test: SCoV-2 PLpro inhibition assay (peptide-AMC fluorescence); format: biochemical, SARS-CoV-2; conditions: 60 μM peptide-AMC, 37°C, 45 min
HCoV-229E [1] = test: MTT-based antiviral assay (protection from virus-induced CPE) in HCoV-229E-infected MRC-5 cells; format: cell-based, Human Coronavirus strain 229E; conditions: for maximum antiviral effect: MRC-5, maximum over concentrations tested; for % Antiviral Activity (Range) / EC50: HCoV-229E-infected MRC-5, 6 days; for % Antiviral Activity (Range): range over the assay conc. range of each compound; for EC50: MRC5, 144 h, no unit in head (assay conc. and CC50 columns in µM)
in vitro [2] = conditions: human
HCoV-229E [3] = test: qRT-PCR viral load in supernatants of HCoV-229E-infected MRC-5 cells; format: cell-based, Human Coronavirus strain 229E
SCoV-2 [4] = test: Immunofluorescence antiviral screening assay (SCoV-2 nucleocapsid staining) in Vero E6 cells; format: cell-based, SARS-CoV-2
Protocol: The antiviral activity of the selected compound against SCoV-2 was analysed by immunofluorescent assay in a 96-well plate. For this, ~10^4 Vero E6 cells per well were seeded and grown to ≥80% confluency. At this stage, cells in replicate wells were treated with a safe dose (identified from the cytotoxicity studies) of the selected compound or with 10μM Remdesivir. These assays also included the necessary negative controls for comparison. The cells were infected with SCoV-2 at 0.1 MOI and, post-30 h incubation, fixed in 4% paraformaldehyde, permeabilized with 0.3% Tween-20 and stained with anti-mouse mAb specific to SCoV-2 Nucleocapsid (primary) followed by staining with Alexafluor 568-labelled anti-mouse antibody (secondary). Prior to mounting, monolayers were treated with Hoechst 33342 to stain the nuclei and the images were captured using ImageXpress Micro Confocal (Molecular devices) at 10 × magnification (16 images/well). The data was analysed in MetaXpress software using a multi-wavelength cell scoring module and the cells double-positive for the viral nucleocapsid as well as nuclei were counted and compared with that in the controls.

[5] = Cytotoxicity assay in Vero E6 cells (Hoechst 33342 / Sytox orange imaging); conditions: African green monkey
Vero E6 cells = test: as above; conditions: for cytotoxicity: Vero E6
in vitro [6] = conditions: African green monkey, % Cell Viability, Vero E6, 30 h
SCoV-2 [7] = system: SCoV-2; parameters: method as in Meyer et al., [2020]; conditions: at clinically relevant concentrations; ref Meyer et al., [2020]; cited from earlier work
PLpro = conditions: reported value, reference not printed at the place; cited from earlier work
[8] = HCoV-229E-infected MRC-5, 6 days, range over the assay conc. range
[9] = MRC-5 cells (human lung fibroblasts), uninfected
[10] = MRC-5, across the tested concentrations

SMILES: C[C@H]1O[C@H](O[C@H]2[C@H](O)[C@@H](O)[C@@H](O[C@H]3[C@H](O)[C@@H](O)C(O)O[C@@H]3CO)O[C@@H]2CO)[C@H](O)[C@@H](O)[C@@H]1N[C@H]1C=C(CO)[C@@H](O)[C@H](O)[C@H]1O (stereo partly shown) [Acarbose]
- IC50 (recombinant SCoV-2 PLpro; IC50, 100 nM PLpro): 2000 ± 280 µM
- maximum antiviral effect (HCoV-229E [1]; HCoV-229E): about 8%
- % Antiviral Activity (Range) (HCoV-229E [1]): +0.3 to +7.2%
- EC50 (HCoV-229E [1]; Human coronavirus 229E): > 7750 µM
- maximum cytotoxicity (MRC-5 cells; human): < 15%
- CC50 at 6 days (in vitro [2]): > 7750 µM
- cytotoxicity at 6 days (in vitro [2]): -15 to 7%

SMILES: OC(c1cc(C(F)(F)F)nc2c(C(F)(F)F)cccc12)C1CCCCN1 (stereo not shown) [Mefloquine]
- IC50 (recombinant SCoV-2 PLpro; IC50, 100 nM PLpro): ~459 µM and 459 µM
- protection from virus-induced CPE (HCoV-229E [1]; 120 μM, HCoV-229E, MRC-5): ~ 62% and ~ 60%
- % Antiviral Activity (Range) (HCoV-229E [1]): -0.4 to +60.6%
- EC50 (HCoV-229E [1]; Human coronavirus 229E): 108 µM
- log10 inhibition of viral titers (HCoV-229E [3]; 120 μM, HCoV-229E, MRC-5): ~0.8 log10
- reduction in viral titers (HCoV-229E [3]; 120 μM, HCoV-229E, MRC-5): 84.7%
- % Reduction in Viral Load (Range) (HCoV-229E [3]; [8]): +84.7 to +38.4%
- Log10 Reduction in Viral Load (Range) (HCoV-229E [3]; [8]): +0.81 to +0.21 Log10
- % Inhibition (SCoV-2 N-positive cells) (SCoV-2 [4]; 0.5 µM (500 nM), SCoV-2-infected Vero E6, 30 h, 0.5 µM): 30% and 30.6%
- inhibition at 0.5 µM (SCoV-2 [4]; Severe acute respiratory syndrome coronavirus 2, Vero C1008, 30 h, read-out: % Inhibition (SCoV-2 N-positive cells), 0.5 µM (500 nM), SCoV-2-infected Vero E6, 30 h): ~31%
- CC50 at 6 days (in vitro [2]; [9]): 173 µM
- cytotoxicity at 6 days (in vitro [2]; [9]): 11.5 to 93.2%
- viability at 30 h, 0.5 µM [5]: 93.2%
- viability at 30 h, 5 µM [5]: 45.6%
- cytotoxicity (Vero E6 cells; 0.5 μM): 7%
- cytotoxicity (Vero E6 cells; 5 μM): about 45%

SMILES: NC(=O)c1nc(F)c[nH]c1=O [Favipiravir]
- protection from virus-induced CPE (HCoV-229E [1]; 250 μM, HCoV-229E, MRC-5): failed to show any obvious protection
- % Antiviral Activity (Range) (HCoV-229E [1]): -0.6 to +26.9%
- inhibition at 500 µM (HCoV-229E [1]; Human coronavirus 229E, MRC5, 500 μM, HCoV-229E, MRC-5, read-out: cells in which virus-induced CPE was inhibited): ~17%
- % Reduction in Viral Load (Range) (HCoV-229E [3]; [8]): 0.0 to +81.6%
- Log10 Reduction in Viral Load (Range) (HCoV-229E [3]; [8]): +0.74 to 0.0 Log10
- CC50 at 6 days (in vitro [2]): 665 µM
- cytotoxicity at 6 days (in vitro [2]): -8.1 to 67.5%

SMILES: CCC(CC)COC(=O)[C@H](C)N[P@](=O)(OC[C@H]1O[C@@](C#N)(c2ccc3c(N)ncnn23)[C@H](O)[C@@H]1O)Oc1ccccc1 [Remdesivir]
- % Inhibition (SCoV-2 N-positive cells) (SCoV-2 [4]; 10 µM, SCoV-2-infected Vero E6, 30 h): 99.2%
- cells protected from SCoV-2-induced CPE (SCoV-2 [4]; 10 μM, Vero E6): > 99%
- inhibition at 10 µM (SCoV-2 [4]; Severe acute respiratory syndrome coronavirus 2, Vero C1008, 30 h, 10 µM, SCoV-2-infected Vero E6, 30 h, read-out: % Inhibition (SCoV-2 N-positive cells)): > 99%
- viability at 10 µM (in vitro [6]): > 99%
- % Cell Viability (Vero E6 cells; 10 µM, Vero E6, 30 h): 99.23%

SMILES: OC[C@@H](O)[C@@H](O[C@@H]1O[C@H](CO)[C@H](O)[C@H](O)[C@H]1O)[C@H](O)[C@@H](O)CO [Lactitol]
- IC50 (recombinant SCoV-2 PLpro; IC50, 100 nM PLpro): 8800 ± 500 µM
- maximum antiviral effect (HCoV-229E [1]; HCoV-229E): about 8%
- % Antiviral Activity (Range) (HCoV-229E [1]): -1.2 to +5.3%
- EC50 (HCoV-229E [1]; Human coronavirus 229E): > 2900 µM
- maximum cytotoxicity (MRC-5 cells; [10]): < 15%
- CC50 at 6 days (in vitro [2]; [9]): > 2900 µM
- cytotoxicity at 6 days (in vitro [2]; [9]): -8.9 to 1.8%

SMILES: Cc1cccc(C)c1OCC(=O)N[C@@H](Cc1ccccc1)[C@@H](O)C[C@H](Cc1ccccc1)NC(=O)[C@H](C(C)C)N1CCCNC1=O [Lopinavir]
- IC50 (recombinant SCoV-2 PLpro; IC50, 100 nM PLpro): 1000 ± 100 µM
- Selectivity Index (CC50/EC50) (HCoV-229E [1]; HCoV-229E, MRC-5): 2.03
- % Antiviral Activity (Range) (HCoV-229E [1]): -6.3 to +72.4%
- EC50 (HCoV-229E [1]; Human coronavirus 229E): 33 µM
- log10 inhibition / reduction in viral load (HCoV-229E [3]; 40 μM, HCoV-229E, MRC-5): ~ 1.4 log10 and 1.42 log10
- reduction in viral titers (HCoV-229E [3]; 40 μM, HCoV-229E, MRC-5): about 96%
- % Reduction in Viral Load (Range) (HCoV-229E [3]; [8]): +96.2 to +29.1%
- Log10 Reduction in Viral Load (Range) (HCoV-229E [3]; [8]): +1.42 to +0.15 Log10
- CC50 at 6 days (in vitro [2]): 67 µM
- cytotoxicity at 6 days (in vitro [2]): -9.6 to 99.9%

SMILES: CC(C)CN(C[C@@H](O)[C@H](Cc1ccccc1)NC(=O)O[C@H]1CO[C@H]2OCC[C@H]21)S(=O)(=O)c1ccc(N)cc1 [Darunavir]
- IC50 (recombinant SCoV-2 PLpro; 100 nM PLpro, read-out: IC50): 1320 ± 200 µM
- % Reduction in Viral Load (Range) (HCoV-229E [3]): 0.0 to +97.6%
- Log10 Reduction in Viral Load (Range) (HCoV-229E [3]): 0.0 to +1.62 Log10
- log10 inhibition / reduction in viral load (HCoV-229E [3]): 1.42 log10
- reduction in viral titers (HCoV-229E [3]): about 96%
- activity against SCoV-2 (in words) (SCoV-2 [7]): completely ineffective
- cytotoxicity (in vitro [2]): -14.4 to 97.2%
- viability (in vitro [2]): 44.5%

SMILES: C[C@@H]1O[C@@H](OC[C@H]2O[C@@H](Oc3c(-c4ccc(O)c(O)c4)oc4cc(O)cc(O)c4c3=O)[C@H](O)[C@@H](O)[C@@H]2O)[C@H](O)[C@H](O)[C@H]1O [Rutin]
- virus-infected cells protected from virus-induced CPE (HCoV-229E [1]; HCoV-229E, MRC-5, concentration not stated at the place): about 37%
- % Antiviral Activity (Range) (HCoV-229E [1]): -1.1 to +37.1%
- log10 inhibition / reduction in viral titers (HCoV-229E [3]): ~0.2 log10
- reduction in viral titers (HCoV-229E [3]): 38.44%
- % Reduction in Viral Load (Range) (HCoV-229E [3]; [8]): +38.4 to -455.4%
- Log10 Reduction in Viral Load (Range) (HCoV-229E [3]; [8]): +0.21 to -0.74 Log10
- CC50 (in vitro [2]): 351 µM
- cytotoxicity (in vitro [2]): -5.9 to 89.5%

SMILES: Cc1cc2nc3c(=O)[nH]c(=O)nc-3n(C[C@H](O)[C@H](O)[C@H](O)COP(=O)(O)OP(=O)(O)OC[C@H]3O[C@@H](n4cnc5c(N)ncnc54)[C@H](O)[C@@H]3O)c2cc1C [FAD, Flavin adenine dinucleotide]
- IC50 (recombinant SCoV-2 PLpro; IC50, 100 nM PLpro): ~127 µM and 127 µM
- maximum antiviral effect (HCoV-229E [1]; HCoV-229E): about 8%
- % Antiviral Activity (Range) (HCoV-229E [1]): -1.3 to +8.1%
- EC50 (HCoV-229E [1]; Human coronavirus 229E): > 1200 µM
- maximum cytotoxicity (MRC-5 cells; [10]): < 15%
- CC50 at 6 days (in vitro [2]; [9]): > 1200 µM
- cytotoxicity at 6 days (in vitro [2]; [9]): -10.5 to 12.7%

SMILES: CC(C)c1nc(CN(C)C(=O)N[C@H](C(=O)N[C@@H](Cc2ccccc2)C[C@H](O)[C@H](Cc2ccccc2)NC(=O)OCc2cncs2)C(C)C)cs1 [Ritonavir]
- protection from virus-induced CPE (HCoV-229E [1]; 70 μM, HCoV-229E, MRC-5): about 35%
- % Antiviral Activity (Range) (HCoV-229E [1]): -3.8 to +36.4%
- log10 inhibition / reduction in viral load (HCoV-229E [3]; 70 μM, HCoV-229E, MRC-5): ~0.6 log10
- reduction in viral titers (HCoV-229E [3]; 70 μM, HCoV-229E, MRC-5): 73.3%
- % Reduction in Viral Load (Range) (HCoV-229E [3]; [8]): +73.3 to -625.5%
- Log10 Reduction in Viral Load (Range) (HCoV-229E [3]; [8]): +0.57 to -0.86 Log10
- cytotoxicity at 6 days (in vitro [2]; [9]): 20.6 to 100%

SMILES: Cc1ccc(N)cc1C(=O)N[C@H](C)c1cccc2ccccc12 [GRL0617, (R)-5-amino-2-methyl-N-(1-(naphthalen-1-yl)ethyl) benzamide]
- % Antiviral Activity (Range) (HCoV-229E [1]): -1.9 to +33.7%
- % Reduction in Viral Load (Range) (HCoV-229E [3]; [8]): Inconsistent
- Log10 Reduction in Viral Load (Range) (HCoV-229E [3]; [8]): Inconsistent
- CC50 at 6 days (in vitro [2]): 137 µM
- cytotoxicity at 6 days (in vitro [2]): 6.2 to 76%
